Oligonucleotides are written 5' to 3', each unit as a sugar letter and its base; * is a phosphorothioate linkage, no mark a phosphodiester; rarer units and linkages stand in square brackets, end groups in braces. Plain capitals give the bases only. m = 2'-O-methyl
Tests used:
dystrophin exon 23 = assay: Exon 23 skip analysis in differentiated murine C2C12 myotubes; format: cell-based, mouse
Description: Murine myoblast cell line C2C12 was maintained in 10% FBS DMEM medium+Pen/Strep and plated at 240,000 cells per well (cpw) in 24-well plates or 40,000 cpw in 96-well plates (wp) in maintenance medium (10% FBS in DMEM medium+Pen/Strep) and incubated at 37° C. with 5% CO2. Twenty-four hours after seeding, cells were switched to differentiation media (2% horse serum in DMEM) and incubated for 3 days before refreshing the medium. After another 24 hours, medium was refreshed again and compounds were added and incubated for 48 hours. Differentiation medium was then refreshed (without compounds), and cells were incubated for another 24 hours. At 72 hours total post treatment, cells in the 24-wp were harvested for exon skip analysis and the cell viability was assessed on the 96-wp.
For analysis of skip from murine cell lines, cells were harvested and RNA was isolated using 0.5 ml TRIzol™ Reagent (Thermo Scientific) per sample, according to the manufacturer's instruction. For analysis of tissue, 30-50 mg frozen tissue was first cut into smaller pieces and mRNA was isolated using TRIzol™ Reagent (Thermo Scientific) and a TissueLyser LT (Qiagen) according to the manufacturer's instruction. For cDNA synthesis per sample, to 0.5 μg RNA in 5.0 μl, 10.0 μl ddH2O, 4 μl 5× iScript™ Reaction Mix and 1.0 μl iScript™ Reverse Transcriptase (BioRad) were added to yield a total volume of 20.0 μl per reaction. The RT-PCR was run for 5 min at 25° C., 60 min at 46° C., and 2 min at 95° C. For skip analysis, SapphireAmp™ Fast PCR Master Mix (TakaraBio) was used according to the manufacturer's instructions. To this end, 9.7 μl RNAse free water, 12.5 μl of 2× Master Mix, 0.4 μl of 10 μM FW primer 5′-[…]-3′ (SEQ ID NO: 14) and 0.4 μl of […] RV primer 5′-[…]-3′ (SEQ ID NO: 15) were added to a PCR tube, mixed, after which 2 μl cDNA (50 ng) was added, to yield a total volume of 25 μl. These samples were subjected to a PCR run of 1 min at 94° C., 35 cycles of 5 sec at 98° C., 5 sec at 55° C., 5 sec at 72° C., followed by 1 min at 72° C. Samples were mixed with 2 μl 6× loading buffer, then 16 μl were loaded onto an 2% agarose gel and ran for 60-90 min at 80 V. Gels were imaged and band intensities were quantified with a ChemiDoc™ XRS+System and Image Lab™ Software (BioRad). The expected non-skipped product has a size of 788 bp, and the skip product of 575 bp, respectively.
Murine myoblast cell line C2C12 was maintained in 10% FBS DMEM medium+Pen/Strep and plated at 240,000 cells per well (cpw) in 24-well plates, or at 40,000 cpw in 96-well plates (wp), in maintenance medium (10% FBS in DMEM medium+Pen/Strep) and incubated at 37° C. with 5% CO2. Twenty-four hours after seeding, cells were switched to differentiation media (2% horse serum in DMEM) and incubated for 3 days before refreshing the medium. After another 24 hours, medium was refreshed again and compounds were added and incubated for 48 hours. At 48 hours total post treatment, cells in the 24-wp were harvested for exon skip analysis and the cell viability was assessed on the 96-wp.
Performed as described above in the Methods (as performed in Examples 1-5).

dystrophin exon 51 = assay: Exon 51 skip analysis in differentiated human myotubes from a non-DMD (healthy) donor (KM155); format: cell-based; details: for % exon skipping: 72 hrs
Description: Immortalized human myoblasts from non-DMD donors (KM155) and myoblasts from a DMD-affected donor (DM8036) were cultured in Skeletal Muscle Cell Growth Medium (PromoCell, Germany) with supplementary pack according to manufacturer's instructions, further supplemented with 15% fetal bovine serum (Gibco, United Kingdom), and 0.5% gentamicin (Sigma-Aldrich, USA). For differentiation, cells were seeded on a 0.5% gelatine-coated surface, and at ˜70-80% confluence, the proliferation medium was replaced by DMEM (Gibco) supplemented with 2% FBS (Gibco), 2% GlutaMAX, and 1% glucose (Sigma-Aldrich) and 0.5% gentamycin. Treatments were started after at least 3 days up to a maximum of 5 days of differentiation (based on the presence of differentiated myotubes).
RNA was isolated with the TRIsure Isolation Reagent (Bioline) and chloroform extraction; isopropanol precipitation of RNA from the aqueous phase was performed as known to someone skilled in the art. For cDNA synthesis, 1000 ng of total RNA was used and diluted in an appropriate amount of RNase-free water to yield 8 μl RNA dilution. The priming premixed contained 1 μl dNTP mix (10 mM each) and 1 μl specific reverse primer (for KM155, h53R 5′-[…]-3′ [SEQ ID NO: 5]; for DM8036, h55R 5′-[…]-3′ [SEQ ID NO: 6]). This mixture was heated for 5 min at 70° C., then chilled on ice for at least 1 min. A reaction mixture was prepared containing 0.5 μl rRNasin (Promega), 4.0 μl RT buffer, 1.0 μl Tetro RT (Bioline), and 4.5 μl RNase-free water, and was added to the chilled mixture to yield a total volume of 20 μl per reaction. The RT-PCR was run for 60 min at 42° C., then 5 min at 85° C., and chilled on ice. For skip analysis, a nested PCR approach was followed. To this end, in the first PCR, 3 μl cDNA were added to a mix of 2.5 μl 10× SuperTaq PCR buffer, 0.5 μl dNTP mix (10 mM each), 0.125 μl Taq DNA polymerase TAQ-RO (5 U/μl; Roche) 16.875 μl RNase-free water and 1 μl (10 pmol/μl) of each primer flanking the targeted exons were used: for KM155, h48F 5′-[…]-3′ [SEQ ID NO: 7] and h53R 5′-[…]-3′ [SEQ NO: ID 5]; for DM8036, h47F2 5′-[…]-3′ [SEQ ID NO: 8] and h54R 5′-[…]-3′ [SEQ ID NO: 9]. These samples were subjected to a PCR run of 5 min at 94° C., then 25 cycles with 40 sec at 94° C., 40 sec at 60° C., 180 sec at 72° C., after which for 7 min at 72° C. For the second PCR, 1.5 μl PCR1 sample were added to a mix of 5 μl 10× SuperTaq PCR buffer, 1 μl dNTP mix (10 mM each), 0.25 μl Taq DNA polymerase TAQ-RO (5 U/μl; Roche), 38.25 μl RNase-free water and 2 μl (10 pmol/μl) of each primer flanking the targeted exons were used: for KM155, h49F 5′-[…]-3′ [SEQ ID NO: 10] and h52R2 5′-[…]-3′ [SEQ ID NO: 11]; for DM8036, h47F 5′-[…]-3′ [SEQ ID NO: 12] and h53R 5′-[…]-3′ [SEQ ID NO: 13]. These samples were subjected to a PCR run of 5 min at 94° C., then 32 cycles with 40 sec at 94° C., 40 sec at 60° C., 60 sec at 72° C., after which for 7 min at 72° C. Exon skipping levels were quantified with the Femto Pulse System using the Ultra Sensitivity NGS Kit (Agilent), according to the manufacturer's instructions. Alternatively, the specific PCR fragments were analyzed using Bioanalyzer 2100 with DNA1000 chip (lab-on-a-chip; Agilent), or separated on 2% agarose gels run at 120 V. Gels were imaged and band intensities were quantified using ImageJ. The expected non-skipped product has a size of 408 bp (KM155) and 475 bp (DM8036), and the skip product of 175 bp (KM155) or 242 bp (DM8036), respectively.
Immortalized human myoblasts from non-DMD donors (KM155) were cultured as described above in the Methods (as performed in Examples 1-5).
RNA was isolated with the TRIsure Isolation Reagent (Bioline) and chloroform extraction; isopropanol precipitation of RNA from the aqueous phase was performed as known to someone skilled in the art. […]

“IGF-1-SO1861+500 nM M23D: IGF-1-SO1861 (DAR2.7) co-administered with 500 nM M23D” was tested, and the “exon 23 skip” value (dystrophin exon 23; 133 nM IGF-1-SO1861 + 500 nM M23D) was 8%, the “exon 23 skip” value (dystrophin exon 23; 667 nM IGF-1-SO1861 + 500 nM M23D) was 11% and the “exon 23 skip” value (dystrophin exon 23; 3333 nM IGF-1-SO1861 + 500 nM M23D) was 19%.

For “DMD-PMO: PMO 5′-CTCCAACATCAAGGAAGATGGCATTTCTAG-3′ [SEQ ID NO: 2]; exon 51 skipping; same sequence but not 5′-modifications as eteplirsen (all phosphorodiamidate morpholino (PMO))”, the “improvement in potency with vs without SO1861-EMCH or SO1861-SC-Mal co-administration” value (dystrophin exon 51) was “one to two orders of magnitude lower”, the “% exon skipping” value (dystrophin exon 51; 0.08 μM DMD oligo alone, Femto) was 0% and the “% exon skipping” value (dystrophin exon 51; 0.31 μM DMD oligo alone, Femto) was 0%. The “% exon skipping” value (dystrophin exon 51; 1.25 μM DMD oligo alone, Femto) was 0%, the “% exon skipping” value (dystrophin exon 51; 5 μM DMD oligo alone, Femto) was 0% and the “% exon skipping” value (dystrophin exon 51; 20 μM DMD oligo alone, Femto) was 4%.

For “DMD-ASO: 2′O-methyl-phosporothioate antisense oligonucleotide 5′-UCAAGGAAGAUGGCAUUUCU-3′ [SEQ ID NO: 1]; exon 51 skipping; same sequence and chemistry as drisapersen (antisense mU*mC*mA*mA*mG*mG*mA*mA*mG*mA*mU*mG*mG*mC*mA*mU*mU*mU*mC*mU; further chemistry not fully specified)”, the “improvement in potency with vs without SO1861-EMCH or SO1861-SC-Mal co-administration” value (dystrophin exon 51) was “one to two orders of magnitude lower”, the “% exon skipping” value (dystrophin exon 51; 0.08 μM DMD oligo alone, Lab-on-a-chip) was 0% and the “% exon skipping” value (dystrophin exon 51; 0.31 μM DMD oligo alone, Lab-on-a-chip) was 0%. For the same substance, the “% exon skipping” value (dystrophin exon 51; 1.25 μM DMD oligo alone, Lab-on-a-chip) was 0% and the “% exon skipping” value (dystrophin exon 51; 5 μM DMD oligo alone, Lab-on-a-chip) was 1%.

For “M23D: PMO 5′-GGCCAAACCTCGGCTTACCTGAAAT-3′ [SEQ ID NO: 3] that induces exon 23 skipping of mouse dystrophin (all phosphorodiamidate morpholino (PMO))”, the “exon 23 skip” value (dystrophin exon 23; 500 nM M23D alone (0 nM conjugate)) was 5% and the “exon 23 skip activity” value (dystrophin exon 23; 500 nM M23D alone, 48 h) was “no exon skip activity”.

Source: patent US20250082759A1, “COMPOSITIONS COMPRISING THERAPEUTIC NUCLEIC ACID AND TARGETED SAPONIN FOR THE TREATMENT OF MUSCLE-WASTING DISORDERS” (SAPREME TECHNOLOGIES B.V., priority 2021, published 2025)
